Data taken from ChEMBL document CHEMBL3045223, “Synthesis, nematicidal and antimicrobial properties of Bis-[4-methoxy-3-[3-(4-fluorophenyl)-6-(4-methylphenyl)-2(aryl)-tetrahydro-2H-pyrazolo[3,4-d]thiazol-5-yl]phenyl]methanes” (2009).
In brackets after ≈: the same amount, converted by molar mass. Activity calls are given as the source filed them. No cut-off for these calls is given here.

Experiments:
Assay type in all cases: functional
[1] = test system: Caenorhabditis elegans; assay: Nematicidal activity against Caenorhabditis elegans assessed as immobility; conditions: read-out: LD50 (the source's name)
[2] = test system: Trichophyton mentagrophytes; assay: Antifungal activity against Trichophyton mentagrophytes IFO 40996 assessed as growth inhibition at 300 ug/disc at 37 degC for 48 hr; conditions: for zone of inhibition at 300 µg/disc: IFO 40996, 48 h, read-out: IZ
[3] = test system: Klebsiella aerogenes; assay: Antibacterial activity against Enterobacter aerogenes MTCC 39 assessed as inhibition zones at 300 ug/disk at 37 degC for 24 hr; conditions: MTCC 39, 24 h, read-out: IZ
[4] = test system: Staphylococcus aureus; assay: Antibacterial activity against Staphylococcus aureus MTCC 96 assessed as inhibition zones at 300 ug/disc at 37 degC for 24 hr; conditions: MTCC 96, 24 h, read-out: IZ
[5] = test system: Staphylococcus aureus; assay: Antibacterial activity against Staphylococcus aureus MTCC 96 assessed as growth arrest at 37 degC for 24 hr; conditions: MTCC 96, 24 h
[6] = test system: Lysinibacillus sphaericus; assay: Antibacterial activity against Lysinibacillus sphaericus MTCC 11 assessed as inhibition zones at 300 ug/disk at 37 degC for 24 hr; conditions: MTCC 11, 24 h, read-out: IZ
[7] = test system: Chromobacterium violaceum; assay: Antibacterial activity against Chromobacterium violaceum MTCC 2656 assessed as inhibition zones at 300 ug/disk at 37 degC for 24 hr; conditions: MTCC 2656, 24 h, read-out: IZ
[8] = test system: Trichophyton mentagrophytes; assay: Antifungal activity against Trichophyton mentagrophytes IFO 40996 assessed as growth inhibition at 37 degC for 48 hr
[9] = test system: Aspergillus fumigatus; assay: Antifungal activity against Aspergillus fumigatus HIC 6094 assessed as growth inhibition at 300 ug/disc at 37 degC for 48 hr; conditions: HIC 6094, 48 h, read-out: IZ
[10] = test system: Candida albicans; assay: Antifungal activity against Candida albicans ATCC 10231 assessed as growth inhibition at 37 degC for 48 hr; conditions: ATCC 10231, 48 h
[11] = test system: Ditylenchus myceliophagus; assay: Nematicidal activity against Ditylenchus myceliophagus assessed as immobility; conditions: read-out: LD50 (the source's name)
[12] = test system: Bacillus subtilis; assay: Antibacterial activity against Bacillus subtilis MTCC 441 assessed as growth arrest at 37 degC for 24 hr; conditions: MTCC 441, 24 h
[13] = test system: Lysinibacillus sphaericus; assay: Antibacterial activity against Lysinibacillus sphaericus MTCC 11 assessed as growth arrest at 37 degC for 24 hr; conditions: MTCC 11, 24 h
[14] = test system: Bacillus subtilis; assay: Antibacterial activity against Bacillus subtilis MTCC 441 assessed as inhibition zones at 300 ug/disk at 37 degC for 24 hr; conditions: MTCC 441, 24 h, read-out: IZ
[15] = test system: Candida albicans; assay: Antifungal activity against Candida albicans ATCC 10231 assessed as growth inhibition at 300 ug/disk at 37 degC for 48 hr; conditions: for zone of inhibition at 300 µg/disc: ATCC 10231, 48 h, read-out: IZ
[16] = test system: Aspergillus fumigatus; assay: Antifungal activity against Aspergillus fumigatus HIC 6094 assessed as growth inhibition at 37 degC for 48 hr
[17] = test system: Trichophyton rubrum; assay: Antifungal activity against Trichophyton rubrum IFO 9185 assessed as growth inhibition at 300 ug/disk at 37 degC for 48 hr; conditions: for zone of inhibition at 300 µg/disc: IFO 9185, 48 h, read-out: IZ
[18] = test system: Klebsiella aerogenes; assay: Antibacterial activity against Enterobacter aerogenes MTCC 39 assessed as growth arrest at 37 degC for 24 hr; conditions: MTCC 39, 24 h
[19] = test system: Chromobacterium violaceum; assay: Antibacterial activity against Chromobacterium violaceum MTCC 2656 assessed as growth arrest at 37 degC for 24 hr; conditions: MTCC 2656, 24 h
[20] = test system: Trichophyton rubrum; assay: Antifungal activity against Trichophyton rubrum IFO 9185 assessed as growth inhibition at 37 degC for 48 hr
[21] = test system: Pseudomonas aeruginosa; assay: Antibacterial activity against Pseudomonas aeruginosa MTCC 741 assessed as growth arrest at 37 degC for 24 hr; conditions: MTCC 741, 24 h
[22] = test system: Pseudomonas aeruginosa; assay: Antibacterial activity against Pseudomonas aeruginosa MTCC 741 assessed as inhibition zones at 300 ug/disk at 37 degC for 24 hr; conditions: MTCC 741, 24 h, read-out: IZ

Structure (SMILES)	LC50 [1]	zone of inhibition at 300 µg/disc [3]	zone of inhibition at 300 µg/disc [4]	MBC [5]	MIC [5]	zone of inhibition at 300 µg/disc [6]	zone of inhibition at 300 µg/disc [7]	zone of inhibition at 300 µg/disc [9]	MBC [10]	MIC [10]	LC50 [11]	MBC [12]	MIC [12]	MBC [13]	MIC [13]	zone of inhibition at 300 µg/disc [14]	MBC [18]	MIC [18]	MBC [19]	MIC [19]	further results
COc1ccc(Cc2ccc(OC)c(C3SC4C(=NN(C)C4c4ccc(F)cc4)N3c3ccc(Cl)cc3)c2)cc1C1SC2C(=NN(C)C2c2ccc(F)cc2)N1c1ccc(Cl)cc1 (stereo not drawn)	210 µg/mL (≈ 228 µM)	21 mm	20 mm	12.5 µg/mL (≈ 13.6 µM)	12.5 µg/mL (≈ 13.6 µM)	20 mm	19 mm	15 mm	25 µg/mL (≈ 27.2 µM)	12.5 µg/mL (≈ 13.6 µM)	190 µg/mL (≈ 207 µM)	50 µg/mL (≈ 54.4 µM)	12.5 µg/mL (≈ 13.6 µM)	25 µg/mL (≈ 27.2 µM)	12.5 µg/mL (≈ 13.6 µM)	21 mm	25 µg/mL (≈ 27.2 µM)	12.5 µg/mL (≈ 13.6 µM)	50 µg/mL (≈ 54.4 µM)	12.5 µg/mL (≈ 13.6 µM)	zone of inhibition at 300 µg/disc [2]: 16 mm; MBC [8]: inactive; MIC [8]: inactive; zone of inhibition at 300 µg/disc [15]: 18 mm; MBC ([16]; HIC 6094, 48 h): 50 µg/mL (≈ 54.4 µM); MIC ([16]; HIC 6094, 48 h): 6.25 µg/mL (≈ 6.79 µM); zone of inhibition at 300 µg/disc [17]: 13 mm; MBC ([20]; IFO 9185, 48 h): 25 µg/mL (≈ 27.2 µM); MIC ([20]; IFO 9185, 48 h): 6.25 µg/mL (≈ 6.79 µM); MBC [21]: 25 µg/mL (≈ 27.2 µM); MIC [21]: 12.5 µg/mL (≈ 13.6 µM); zone of inhibition at 300 µg/disc [22]: 21 mm
COc1ccc(Cc2ccc(OC)c(C3SC4C(=NN(C(C)C)C4c4ccc(F)cc4)N3c3ccc(C)cc3)c2)cc1C1SC2C(=NN(C(C)C)C2c2ccc(F)cc2)N1c1ccc(C)cc1 (stereo not drawn)	600 µg/mL (≈ 642 µM)	19 mm	23 mm	50 µg/mL (≈ 53.5 µM)	25 µg/mL (≈ 26.7 µM)	13 mm	16 mm	13 mm	25 µg/mL (≈ 26.7 µM)	12.5 µg/mL (≈ 13.4 µM)	550 µg/mL (≈ 588 µM)	50 µg/mL (≈ 53.5 µM)	25 µg/mL (≈ 26.7 µM)	50 µg/mL (≈ 53.5 µM)	50 µg/mL (≈ 53.5 µM)	13 mm	12.5 µg/mL (≈ 13.4 µM)	12.5 µg/mL (≈ 13.4 µM)	25 µg/mL (≈ 26.7 µM)	25 µg/mL (≈ 26.7 µM)	inhibition zone (IZ) [2]: inactive; MBC [8]: inactive; MIC [8]: inactive; inhibition zone (IZ) [15]: inactive; MBC [16]: inactive; MIC [16]: inactive; inhibition zone (IZ) [17]: inactive; MBC [20]: inactive; MIC [20]: inactive; MBC [21]: 12.5 µg/mL (≈ 13.4 µM); MIC [21]: 6.25 µg/mL (≈ 6.68 µM); zone of inhibition at 300 µg/disc [22]: 23 mm
COc1ccc(Cc2ccc(OC)c(C3SC4C(=NN(c5ccc(Cl)cc5)C4c4ccc(F)cc4)N3c3ccc(C)cc3)c2)cc1C1SC2C(=NN(c3ccc(Cl)cc3)C2c2ccc(F)cc2)N1c1ccc(C)cc1 (stereo not drawn)	360 µg/mL (≈ 336 µM)	18 mm	29 mm	25 µg/mL (≈ 23.3 µM)	12.5 µg/mL (≈ 11.7 µM)	17 mm	21 mm	11 mm	25 µg/mL (≈ 23.3 µM)	12.5 µg/mL (≈ 11.7 µM)	240 µg/mL (≈ 224 µM)	25 µg/mL (≈ 23.3 µM)	12.5 µg/mL (≈ 11.7 µM)	25 µg/mL (≈ 23.3 µM)	12.5 µg/mL (≈ 11.7 µM)	17 mm	50 µg/mL (≈ 46.6 µM)	12.5 µg/mL (≈ 11.7 µM)	25 µg/mL (≈ 23.3 µM)	12.5 µg/mL (≈ 11.7 µM)	zone of inhibition at 300 µg/disc [2]: 10 mm; MBC ([8]; IFO 40996, 48 h): 12.5 µg/mL (≈ 11.7 µM); MIC ([8]; IFO 40996, 48 h): 6.25 µg/mL (≈ 5.83 µM); zone of inhibition at 300 µg/disc [15]: 13 mm; MBC ([16]; HIC 6094, 48 h): 12.5 µg/mL (≈ 11.7 µM); MIC ([16]; HIC 6094, 48 h): 6.25 µg/mL (≈ 5.83 µM); zone of inhibition at 300 µg/disc [17]: 11 mm; MBC ([20]; IFO 9185, 48 h): 12.5 µg/mL (≈ 11.7 µM); MIC ([20]; IFO 9185, 48 h): 6.25 µg/mL (≈ 5.83 µM); MBC [21]: 25 µg/mL (≈ 23.3 µM); MIC [21]: 6.25 µg/mL (≈ 5.83 µM); zone of inhibition at 300 µg/disc [22]: 11 mm
COc1ccc(Cc2ccc(OC)c(C3SC4C(=NN(Cc5ccccc5)C4c4ccc(F)cc4)N3c3ccc(Cl)cc3)c2)cc1C1SC2C(=NN(Cc3ccccc3)C2c2ccc(F)cc2)N1c1ccc(Cl)cc1 (stereo not drawn)	200 µg/mL (≈ 187 µM)	23 mm	30 mm	25 µg/mL (≈ 23.3 µM)	6.25 µg/mL (≈ 5.83 µM)	23 mm	18 mm	17 mm	6.25 µg/mL (≈ 5.83 µM)	3.12 µg/mL (≈ 2.91 µM)	180 µg/mL (≈ 168 µM)	12.5 µg/mL (≈ 11.7 µM)	6.25 µg/mL (≈ 5.83 µM)	50 µg/mL (≈ 46.6 µM)	6.25 µg/mL (≈ 5.83 µM)	23 mm	12.5 µg/mL (≈ 11.7 µM)	6.25 µg/mL (≈ 5.83 µM)	6.25 µg/mL (≈ 5.83 µM)	6.25 µg/mL (≈ 5.83 µM)	zone of inhibition at 300 µg/disc [2]: 16 mm; MBC ([8]; IFO 40996, 48 h): 25 µg/mL (≈ 23.3 µM); MIC ([8]; IFO 40996, 48 h): 12.5 µg/mL (≈ 11.7 µM); zone of inhibition at 300 µg/disc [15]: 21 mm; MBC ([16]; HIC 6094, 48 h): 12.5 µg/mL (≈ 11.7 µM); MIC ([16]; HIC 6094, 48 h): 6.25 µg/mL (≈ 5.83 µM); zone of inhibition at 300 µg/disc [17]: 14 mm; MBC ([20]; IFO 9185, 48 h): 12.5 µg/mL (≈ 11.7 µM); MIC ([20]; IFO 9185, 48 h): 6.25 µg/mL (≈ 5.83 µM); MBC [21]: 50 µg/mL (≈ 46.6 µM); MIC [21]: 12.5 µg/mL (≈ 11.7 µM); zone of inhibition at 300 µg/disc [22]: 18 mm
